# In patent publication US7842479B2 (priority 2004, dated 2010):
# Entries after “also recorded” stand apart in the source; their conditions may differ. Counter-ions that a name gives are not always drawn. Like-named read-outs stand apart in the source and are kept apart here.
# Experiments:
# [1] = system: cidABC and lrgAB transcription; format: cell-based, S. aureus
# [2] = system: cidC-encoded pyruvate oxidase; format: biochemical, S. aureus
# 8325-4 strain [3] = system: 8325-4 strain
# [4] = system: S. aureus KB1050 (cidA mutant); format: cell-based
# S. aureus UAMS-1 = format: cell-based
# SH1000 strain [5] = format: cell-based
# SH1000 strain [6] = format: cell-based; remark: listed apart in the source
# 8325-4 strain [7] = format: cell-based
smiles,measurement,setting,value
Cl [HCl],cidABC and lrgAB expression,[1]; pH 5,elevated the expression of cidABC relative to growth in neutral media
"CC(=O)[O-].[Na+] [Na-acetate, sodium acetate]",cidABC and lrgAB expression,[1]; pH 4.5,dramatically increased
same,cidABC and lrgAB expression,[1]; pH 6.5,undetectable
"[Cl-].[Na+] [NaCl, sodium chloride]",cidABC and lrgAB expression,[1]; pH 4.5,not detected at any of the pH values tested
CC(=O)O [acetic acid],alsSD expression,alsSD transcription,dramatically increased expression of alsSD at all time points tested
same,cidABC expression,[1],dramatically increased expression of cidABC
same,cidABC and lrgAB expression,[1]; pH 5,pronounced positive effect on both cidABC and lrgAB expression
OCC(O)CO [glycerol],pyruvate oxidase activity with carbon source added instead of sodium pyruvate,[2],the only one that possessed activity was the phosphoenol pyruvate
C=C(OP(=O)(O)O)C(=O)O [phosphoenol pyruvate],pyruvate oxidase activity with carbon source added instead of sodium pyruvate,[2],approximately half of what was seen with sodium pyruvate
CC(=O)[O-].[K+] [potassium acetate],pyruvate oxidase activity with carbon source added instead of sodium pyruvate,[2],the only one that possessed activity was the phosphoenol pyruvate
CO[C@H]1/C=C/O[C@@]2(C)Oc3c(C)c(O)c4c(O)c(c(/C=N/N5CCN(C)CC5)c(O)c4c3C2=O)NC(=O)/C(C)=C\C=C\[C@H](C)[C@H](O)[C@@H](C)[C@@H](O)[C@@H](C)[C@H](OC(C)=O)[C@@H]1C [rifampin],difference in viable cell counts determined using the two methods,8325-4 strain [3],"greater than 1,000 fold"
same,viability,8325-4 strain [3]; Staphylococcus aureus,~100%
same,rifampin sensitivity relative to UAMS-1,[4],decreased rifampin sensitivity relative to UAMS-1
same,viable cell counts compared to UAMS-1 after incubation with rifampin,[4],greater than one log unit higher viable cell counts
same,decrease in viable cell counts,S. aureus UAMS-1,three log decrease in viable cell counts; also recorded: just over one log decrease
same,loss of viability,SH1000 strain [5],two log loss of viability
same,loss of viable cell counts,SH1000 strain [6],lose two log units of viable cell counts
same,loss of viable cell counts,8325-4 strain [7],lose two log units of viable cell counts
CC(O)C(=O)[O-].[Na+] (stereo not shown) [sodium lactate],pyruvate oxidase activity with carbon source added instead of sodium pyruvate,[2],the only one that possessed activity was the phosphoenol pyruvate
